Like-named read-outs stand apart in the source and are kept apart here.
Legend:
HT22 cells [1] = assay: In vitro ischemia assay (HT22 cell IAA assay, MTT); type: cell-based, mouse; settings: for EC50 / Emax: Mus musculus; for EC50: HT-22, HT22 cells; for EC50 in vitro ischemia (μM): HT22 cells; for Emax: HT-22, HT22 Cell IAA assay, read-out: Max Protection
Method: Cell viability was determined by a modified version of 3-(4,5-dimethylthiazol-2-yl)-2,5-diphenyl tetrazolium bromide (MTT) assay based on the standard procedure (Maher, et al., Brain Research. (2007), supra). Cells were seeded onto 96-well microtiter plates at a density of 5×10^3 cells per well. For the in vitro ischemia assay, the next day, the medium was replaced with DMEM supplemented with 7.5% DFCS and the cells were treated with 20 μM iodoacetic acid (IAA) alone or in the presence of the different derivatives. After 2 hr the medium in each well was aspirated and replaced with fresh medium without IAA but containing the derivatives. 20 hr later, the medium in each well was aspirated and replaced with fresh medium containing 2.5 μg/ml MTT. After 4 hr of incubation at 37° C., the cells were solubilized with 100 μl of a solution containing 50% dimethylformamide and 20% SDS (pH 4.7). The absorbance at 570 nm was measured on the following day with a microplate reader (Molecular Devices). Results were confirmed by visual inspection of the wells. Controls included compound alone to test for toxicity and compound with no cells to test for interference with the assay chemistry.
For a primary screen, an in vitro ischemia model in combination with the HT22 nerve cell line (Maher, et al., Brain Research. (2007) 1173, 117-125) was chosen. […] To induce ischemia in the HT22 cells we used iodoacetic acid (IAA), a well-known, irreversible inhibitor of the glycolytic enzyme glyceraldehyde 3-phosphate dehydrogenase (G3PDH) (Winkler, et al., Exp. Eye Res. (2003) 76, 715-723). IAA has been used in a number of other studies to induce ischemia in nerve cells (Reshef, et al., Neurosci. Lett. (1997) 238, 37-40; Sperling, et al., Neursci. Lett. (2003) 351, 137-140; Rego, et al., Neurochem. Res. (1999) 24, 351-358; Sigalov, et al., J. Mol. Neurosci. (2000) 15, 147-154; and Reiner, et al., Neurosci. Lett. (1990) 119, 175-178), including several recent screens for neuroprotective molecules (Biraboneye, et al., J. Med. Chem. (2009) 52 (14), 4358-4369; Biraboneye, et al., Chem. Med. Chem. (2010) 5 (1), 79-85). The changes following IAA treatment of neural cells are very similar to those seen in animal models of ischemic stroke (Lipton, et al., Physiol. Rev. (1999) 79, 1431-1568) and include alterations in membrane potential (Reiner, et al., Neurosci. Lett. (1990) 119, 175-178), breakdown of phospholipids (Taylor, et al., J. Pharmacol. Exp. Ther. (1996) 276, 1224-1231), loss of ATP (Winkler, et al., Exp. Eye Res. (2003) 76, 715-723; Sperling, et al., Neursci. Lett. (2003) 351, 137-140) and an increase in reactive oxygen species (ROS) (Taylor, et al., J. Pharmacol. Exp. Ther. (1996), supra; and Sperling, et al., Neursci. Lett. (2003) 351, 137-140).
(§1) Cell viability was determined after 24 hr by the MTT assay. The ability to maintain GSH (GSH) was determined by treating HT22 cells with different doses of each derivative (1-10 μM) in the presence of 5 mM glutamate. After 24 hr cell extracts were prepared and analyzed for total GSH. Fisetin (10 μM) was used as a positive control. The ability to induce PC12 cell differentiation (PC 12 diff' n) was determined by treating PC12 cells in N2 medium with different doses of each derivative (1-10 μM) for 24 hr. Differentiation was assessed by visual inspection with Fisetin (10 μM) as a positive control. Anti-inflammatory activity (microglia) was assessed in N9 microglial cells treated with bacterial lipopolysaccharide alone or in the presence different doses of each derivative (1-10 μM) for 24 hr. Fisetin was used as a positive control. TEAC values, a measure of direct antioxidant activity, were determined using the ABTS decolorization assay.
For rapid screening of chemical libraries, a mouse HT22 hippocampal cell death assay induced by addition of the compound iodoacetic acid (IAA) was used. IAA is a well-known, irreversible inhibitor of the glycolytic enzyme glyceraldehyde 3-phosphate dehydrogenase (G3PDH). […]

HT22 cells [2] = assay: Maintenance of total GSH in the presence of glutamate; type: cell-based, mouse; settings: derivative 1-10 μM, 5 mM glutamate, 24 hr
Method: Total intracellular glutathione was determined by a chemical assay as described (Maher, P. et al., Free Radical Research. (2006) 40 (10), 1105-1111).
(§2) Three secondary screens allowed assessment of three key activities of Fisetin that are highly relevant to stroke, as well as other neurological disorders: maintenance of glutathione (GSH), the major endogenous cellular antioxidant, inhibition of LPS-induced microglial activation, an indicator of anti-inflammatory activity and PC 12 cell differentiation, a measure of neurotrophic activity. All of these activities are relevant to the nerve cell loss seen in stroke (Gelderblom, et al., Stroke. 2009, 40 (5), 1849-1857; Pandya, et al., Cent. Nerv. Syst. Agents. Med. Chem. (2011) April 27; Lewerenz, et al., J. Neurochem. (2010) 113 (2), 502-504). […] To assess GSH maintenance, total intracellular GSH levels after a 24 hr treatment with the compound both in the absence and presence of glutamate, an inducer of GSH loss and oxidative stress (Tan, et al., Curr. Top. Med. Chem. (2001) 1, 497-506; Maher, et al., Free Radical Research. (2006) 40 (10), 1105-1111) was measured. Inhibition of LPS-induced microglial activation was determined by treating N9 mouse microglial cells with LPS alone and in the presence of the compounds and assaying NO release into the medium 24 hr later (Zheng, et al., Int. Immunopharmacol. (2008) 8, (3), 484-494). PC12 cell differentiation was determined by treating PC12 cells with the compounds and looking at neurite outgrowth after 24 hr. In all cases, Fisetin was used as a positive control (Sagara, et al., J. Neurochem. (2004) 90, 1144-1155).
as §1

PC12 cells = assay: PC12 cell differentiation (neurite outgrowth); type: cell-based; settings: N2 medium, derivative 1-10 μM, 24 hr, visual inspection
Method: PC 12 cells in N2 medium were treated with the derivatives (1-10 μM) or Fisetin (10 μM) as a positive control for 24 hr at which time the cells were scored for the presence of neurites. PC12 cells produce neurites much more rapidly when treated in N2 medium than when treated in regular growth medium. For each treatment, 100 cells in each of three separate fields were counted. Cells were scored positive if one or more neurites>1 cell body diameter in length were observed.
as §2, §1

[3] = TEAC, ABTS decolorization assay; settings: relative to Trolox
Method: TEAC values for the flavonoids were determined as described (Maher, P. et al., Free Radical Research. (2006), supra). Briefly, 250 μl of 2,2′-azinobis(3-ethylbenzothiazoline 6-sulfonate) (ABTS) treated overnight with potassium persulfate and diluted to an OD of ˜0.7 at 734 nm was added to 2.5 μl of a derivative solution in ethanol. The change in absorbance due to the reduction of the ABTS radical cation was measured at 734 nm for 4 min. To calculate the TEAC, the gradient of the plot of the percentage inhibition of absorbance vs. concentration for the derivative in question was divided by the gradient of the plot for Trolox.
as §1

[4] = 20 μM IAA for 2 hr, viability after 24 hr by MTT, read-out: EC50 in vitro ischemia
[5] = 20 μM IAA for 2 hr, viability after 24 hr by MTT
[6] = 20 μM IAA, read-out: HT22 Cell IAA assay EC50

Row | Compound | EC50 (HT22 cells [1]; [4]) [µM] | GSH (ability to maintain GSH) (HT22 cells [2]) | PC12 diff'n (ability to induce PC12 cell differentiation) (PC12 cells) | TEAC [3] | EC50 in vitro ischemia (μM) (HT22 cells [1]; [5]) | EC50 (HT22 cells [1]; [6]) [µM] | Emax (HT22 cells [1]) [%]
1 | COc1cc(-c2oc3c(ccc4ccccc43)c(=O)c2O)ccc1O [CMS-070, 3-hydroxy-2-(4-hydroxy-3-methoxyphenyl)-4H-benzo[h]chromen-4-one] | > 0.5 | no | yes | 0.63 | – | – | –
2 | COc1ccc(/C=C/C(=O)c2cc(C)c(C)cc2O)cc1O [CMS-088, (E)-1-(2-hydroxy-4,5-dimethylphenyl)-3-(3-hydroxy-4-methoxyphenyl)prop-2-en-1-one] | 0.2 | no | no | 0.12 | – | – | –
3 | CCOc1ccc(-c2cc(OC)c3ccccc3n2)cc1OCC [CMS-004, 4-methoxy-2-(3,4-diethoxyphenyl) quinoline] | – | no | no | 0.12 | no | – | –
4 | Cc1cc2oc(-c3ccc(O)c(O)c3)c(O)c(=O)c2cc1C [CMS-027, 2-(3,4-dihydroxyphenyl)-3-hydroxy-6,7-dimethyl-4H-chromen-4-one] | 0.5 | no | no | 1.89 | – | – | –
5 | CCOc1ccc(/C=C/C(=O)c2cc(C)c(C)cc2O)cc1OCC [CMS-013, (E)-3-(3,4-diethoxyphenyl)-1-(2-hydroxy-4,5-dimethylphenyl)prop-2-en-1-one] | – | no | no | 0.09 | no | – | –
6 | CCOc1ccc(-c2cc(=O)c3cc(C)c(C)cc3o2)cc1OCC [CMS-018, 2-(3,4-diethoxyphenyl)-6,7-dimethyl-4H-chromen-4-one] | – | no | no | 0.15 | no | – | –
7 | COc1cc(-c2cc(OC)c3ccccc3n2)ccc1O [CMS-017, 4-methoxy-2-(4-hydroxy, 3-methoxyphenyl) quinoline] | 0.5 | no | no | 0.15 | – | – | –
8 | COc1cc(-c2ccc(O)cc2O)nc2ccccc12 [CMS-083, 4-methoxy-2-(2,4-dihydroxyphenyl) quinoline] | > 0.5 | no | no | 0.05 | – | – | –
9 | COc1cc(-c2ccc(O)cc2)nc2ccccc12 [CMS-022, 4-methoxy-2-(4-hydroxyphenyl)quinoline] | – | no | no | 0.81 | no | – | –
10 | CC(C)Oc1cc(-c2ccc(O)cc2O)nc2ccccc12 [CMS-084, 4-isopropoxy-2-(2,4-dihydroxyphenyl) quinoline] | 0.21 | no | no | 0.27 | – | 0.21 | –
11 | COc1ccc(-c2oc3cc(C)c(C)cc3c(=O)c2O)cc1O [CMS-092, 3-hydroxy-2-(3-hydroxy-4-methoxyphenyl)-6,7-dimethyl-4H-chromen-4-one] | 0.02 | no | no | 1.74 | – | – | 90
12 | O=c1c(O)c(-c2ccc(N3CCCC3)cc2)oc2c1ccc1ccccc12 [CMS-114, 3-hydroxy-2-(4-(pyrrolidin-1-yl)phenyl)-4H-benzo[h]chromen-4-one] | 0.07 | no | yes | 1.44 | – | 0.071 | 74
13 | CN(C)c1ccc(-c2cc(=O)c3ccc4ccccc4c3o2)cc1 [CMS-120, 2-(4-(dimethylamino)phenyl)-4H-benzo[h]chromen-4-one] | 0.25 | no | no | 0.24 | – | – | –

Source: patent US20140186329A1, “POLYPHENOL ANALOGS TO TREAT ISCHEMIA” (priority 2011, published 2014)
